How the values were obtained:
Assay type in all cases: in vivo
[1] = system: barnyardgrass (Echinochloa crus-galli); test: Test A preemergence, barnyardgrass; settings: Preemergence, 0 to 100 scale (0 no effect, 100 complete control)
Procedure, shortened: (§1)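 Injury was assessed visually about ten days after application, relative to untreated plants, with 0 meaning no effect and 100 complete control. Treatments were soil-directed sprays after sowing (pre) or sprays on seedlings at one to two leaves (post), in loam soil/sand.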

[2] = system: kochia (Kochia scoparia); test: Test A preemergence, kochia; settings: Preemergence, 0 to 100 scale (0 no effect, 100 complete control)
Procedure, shortened: as §1

[3] = system: ragweed (common ragweed, Ambrosia elatior); test: Test A preemergence, ragweed; settings: Preemergence, 0 to 100 scale (0 no effect, 100 complete control)
Procedure, shortened: as §1

[4] = system: ryegrass, Italian (Italian ryegrass, Lolium multiflorum); test: Test A preemergence, Italian ryegrass; settings: Preemergence, 0 to 100 scale (0 no effect, 100 complete control)
Procedure, shortened: as §1

[5] = system: foxtail, giant (giant foxtail, Setaria faberii); test: Test A preemergence, giant foxtail; settings: Preemergence, 0 to 100 scale (0 no effect, 100 complete control)
Procedure, shortened: as §1

[6] = system: pigweed (Amaranthus retroflexus); test: Test A preemergence, pigweed; settings: Preemergence, 0 to 100 scale (0 no effect, 100 complete control)
Procedure, shortened: as §1

[7] = system: barnyardgrass (Echinochloa crus-galli); test: Test A postemergence, barnyardgrass
Procedure, shortened: as §1

[8] = system: kochia (Kochia scoparia); test: Test A postemergence, kochia
Procedure, shortened: as §1

[9] = system: ragweed (common ragweed, Ambrosia elatior); test: Test A postemergence, ragweed
Procedure, shortened: as §1

[10] = system: ryegrass, Italian (Italian ryegrass, Lolium multiflorum); test: Test A postemergence, Italian ryegrass
Procedure, shortened: as §1

[11] = system: foxtail, giant (giant foxtail, Setaria faberii); test: Test A postemergence, giant foxtail
Procedure, shortened: as §1

[12] = system: pigweed (Amaranthus retroflexus); test: Test A postemergence, pigweed
Procedure, shortened: as §1

[13] = system: wheat (Triticum aestivum); test: Test A postemergence, wheat
Procedure, shortened: as §1

[14] = system: corn (Zea mays); test: Test A postemergence, corn
Procedure, shortened: as §1

[15] = system: blackgrass (Alopecurus myosuroides); test: Test A postemergence, blackgrass
Procedure, shortened: as §1

[16] = system: galium (catchweed bedstraw, Galium aparine); test: Test A postemergence, galium
Procedure, shortened: as §1

[17] = system: rice (Oryza sativa); test: Test B flooded paddy test, rice; settings: 250 g ai/ha, Flood; visual rating after 13 to 15 days; scale 0 to 100, 0 is no effect, 100 is complete control
Procedure, shortened: (§2)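 Visual ratings, 0 = no effect to 100 = complete control, versus controls after 13 to 15 days in greenhouse. Test compounds were added to paddy water kept 3 cm over the soil surface, on plants at 2-leaf stage.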

[18] = system: sedge, umbrella (small-flower umbrella sedge, Cyperus difformis); test: Test B flooded paddy test, umbrella sedge; settings: 250 g ai/ha, Flood; visual rating after 13 to 15 days; scale 0 to 100, 0 is no effect, 100 is complete control
Procedure, shortened: as §2

[19] = system: ducksalad (Heteranthera limosa); test: Test B flooded paddy test, ducksalad; settings: 250 g ai/ha, Flood; visual rating after 13 to 15 days; scale 0 to 100, 0 is no effect, 100 is complete control
Procedure, shortened: as §2

[20] = system: barnyardgrass (Echinochloa crus-galli); test: Test B flooded paddy test, barnyardgrass; settings: 250 g ai/ha, Flood; visual rating after 13 to 15 days; scale 0 to 100, 0 is no effect, 100 is complete control
Procedure, shortened: as §2

[21] = 125 g ai/ha, postemergence, 0 to 100 scale, 0 is no effect, 100 is complete control, approximately 10 days
[22] = Postemergence, 31 g ai/ha, 0 to 100 scale (0 no effect, 100 complete control)
[23] = 500 g ai/ha, postemergence, 0 to 100 scale, 0 is no effect, 100 is complete control, approximately 10 days
[24] = 31 g ai/ha, postemergence, 0 to 100 scale, 0 is no effect, 100 is complete control, approximately 10 days

Row | SMILES | Plant response rating, Barnyardgrass ([1]; 125 g ai/ha) | Plant response rating, Kochia ([2]; 125 g ai/ha) | Plant response rating, Ragweed ([3]; 125 g ai/ha) | Plant response rating, Ryegrass, Italian ([4]; 125 g ai/ha) | Plant response rating, Foxtail, Giant ([5]; 125 g ai/ha) | Plant response rating, Pigweed ([6]; 125 g ai/ha) | Plant response rating, Barnyardgrass [7, 21] | Plant response rating, Kochia [8, 21] | Plant response rating, Ragweed [9, 21] | Plant response rating, Ryegrass, Italian [10, 21] | Plant response rating, Foxtail, Giant [11, 21] | Plant response rating, Pigweed [12, 21] | Plant response rating, Wheat [13, 21] | Plant response rating, Corn [14, 21] | Plant response rating, Blackgrass [15, 21] | Plant response rating, Galium [16, 21] | Plant response rating, Rice [17] | Plant response rating, Sedge, Umbrella [18] | Plant response rating, Ducksalad [19] | Plant response rating, Barnyardgrass [20] | other results
1 | N#CCCCOc1c(I)cccc1Oc1ncc(Cl)cn1 [Compound 67] | 30 | 80 | 0 | 20 | 100 | 100 | 30 | 100 | 10 | 10 | 30 | 100 | 0 | 20 | 30 | 50 | 10 | 95 | 100 | 0 | Plant response rating, Barnyardgrass ([1]; 31 g ai/ha): 0; Plant response rating, Kochia ([2]; 31 g ai/ha): 20; Plant response rating, Ragweed ([3]; 31 g ai/ha): 0; Plant response rating, Ryegrass, Italian ([4]; 31 g ai/ha): 0; Plant response rating, Foxtail, Giant ([5]; 31 g ai/ha): 60; Plant response rating, Pigweed ([6]; 31 g ai/ha): 50; Plant response rating, Barnyardgrass [7, 22]: 0; Plant response rating, Kochia [8, 22]: 60; Plant response rating, Ragweed [9, 22]: 0; Plant response rating, Ryegrass, Italian [10, 22]: 0; Plant response rating, Foxtail, Giant [11, 22]: 10; Plant response rating, Pigweed [12, 22]: 60; Plant response rating, Wheat [13, 22]: 0; Plant response rating, Corn [14, 22]: 10; Plant response rating, Blackgrass [15, 22]: 0; Plant response rating, Galium [16, 22]: 30
2 | N#Cc1cccc(Oc2ncc(Cl)cn2)c1OCc1ccccc1Cl [Compound 2] | 0 | 0 | 0 | 0 | 10 | 0 | 0 | 30 | 0 | 0 | 0 | 0 | 0 | 0 | 0 | 20 | 0 | 0 | 0 | 0 | Plant response rating, Barnyardgrass ([1]; 500 g ai/ha): 10; Plant response rating, Kochia ([2]; 500 g ai/ha): 0; Plant response rating, Ragweed ([3]; 500 g ai/ha): 0; Plant response rating, Ryegrass, Italian ([4]; 500 g ai/ha): 0; Plant response rating, Foxtail, Giant ([5]; 500 g ai/ha): 70; Plant response rating, Pigweed ([6]; 500 g ai/ha): 20; Plant response rating, Barnyardgrass [7, 23]: 10; Plant response rating, Kochia [8, 23]: 40; Plant response rating, Ragweed [9, 23]: 10; Plant response rating, Ryegrass, Italian [10, 23]: 0; Plant response rating, Foxtail, Giant [11, 23]: 10; Plant response rating, Pigweed [12, 23]: 10; Plant response rating, Wheat [13, 23]: 0; Plant response rating, Corn [14, 23]: 30; Plant response rating, Blackgrass [15, 23]: 0; Plant response rating, Galium [16, 23]: 50
3 | FC(F)(F)CCCOc1c(Oc2ncc(Cl)cn2)cccc1C(F)(F)F [Compound 54] | 90 | 30 | 0 | 80 | 100 | 100 | 20 | 50 | 10 | 20 | 70 | 80 | 10 | 20 | 10 | 50 | 40 | 100 | 100 | 40 | Plant response rating, Barnyardgrass ([1]; 31 g ai/ha): 20; Plant response rating, Kochia ([2]; 31 g ai/ha): 0; Plant response rating, Ragweed ([3]; 31 g ai/ha): 0; Plant response rating, Ryegrass, Italian ([4]; 31 g ai/ha): 10; Plant response rating, Foxtail, Giant ([5]; 31 g ai/ha): 50; Plant response rating, Pigweed ([6]; 31 g ai/ha): 20; Plant response rating, Barnyardgrass [7, 24]: 10; Plant response rating, Kochia [8, 24]: 10; Plant response rating, Ragweed [9, 24]: 0; Plant response rating, Ryegrass, Italian [10, 24]: 0; Plant response rating, Foxtail, Giant [11, 24]: 10; Plant response rating, Pigweed [12, 24]: 20; Plant response rating, Wheat [13, 24]: 0; Plant response rating, Corn [14, 24]: 10; Plant response rating, Blackgrass [15, 24]: 0; Plant response rating, Galium [16, 24]: 20
4 | FC(F)(F)CCOc1c(I)cccc1Oc1ncc(Cl)cn1 [Compound 69] | 100 | 100 | 0 | 50 | 100 | 100 | 100 | 100 | 40 | 90 | 100 | 100 | 30 | 70 | 80 | 100 | 15 | 100 | 100 | 40 | Plant response rating, Barnyardgrass ([1]; 31 g ai/ha): 90; Plant response rating, Kochia ([2]; 31 g ai/ha): 80; Plant response rating, Ragweed ([3]; 31 g ai/ha): 0; Plant response rating, Ryegrass, Italian ([4]; 31 g ai/ha): 10; Plant response rating, Foxtail, Giant ([5]; 31 g ai/ha): 90; Plant response rating, Pigweed ([6]; 31 g ai/ha): 90; Plant response rating, Barnyardgrass [7, 22]: 60; Plant response rating, Kochia [8, 22]: 90; Plant response rating, Ragweed [9, 22]: 30; Plant response rating, Ryegrass, Italian [10, 22]: 0; Plant response rating, Foxtail, Giant [11, 22]: 40; Plant response rating, Pigweed [12, 22]: 100; Plant response rating, Wheat [13, 22]: 0; Plant response rating, Corn [14, 22]: 20; Plant response rating, Blackgrass [15, 22]: 30; Plant response rating, Galium [16, 22]: 60

Source: patent US10485235B2, “Aryloxypyrimidinyl ethers as herbicides” (FMC Corporation, priority 2015, dated 2019)
